In publication PMC7169845, “Synthesis and Bioactivity of Phthalimide Analogs as Potential Drugs to Treat Schistosomiasis, a Neglected Disease of Poverty” (Pharmaceuticals, 2020):

Experiments:
[1] = test system: S. mansoni somules (schistosomula, post-infective larvae); experiment: Phenotypic screen of S. mansoni somules (severity score); format: cell-based, Schistosoma mansoni; set-up: key to SOMULE DESCRIPTORS @ 10 µM, 24 h: Dark = dark; S = Slow; O = overactive; I = Immobile; R = shape altered from normal (either larger or smaller); Deg = degenerative changes; D = dead; pD = "partial death:" % of worms in a well that appear to be dead
Protocol: (§1) Functionalized Pht-based molecules were synthesized, and phenotypically screened at 10 µM as a function of time against S. Mansoni somules (up to 72 h) and adults (up to 24 h). The resulting phenotypes were classified using a previously described nomenclature that records the many non-exclusive changes (descriptors) that can occur in the parasite in response to chemical insult. Each descriptor is converted into a value from 0 (no effect) to 4 (maximal effect) to allow for comparisons of effects on the parasite between compounds [40, 41, 42, 43]. For consistency, we consider a score of 2 to be the minimum for a compound to be considered active.
(§2) Maintenance of the S. mansoni (Naval Medical Research Institute (NMRI) isolate), life cycle involved male Golden Syrian Hamsters and Biomphalaria glabrata snails (NMRI isolate), as the definitive and intermediate hosts, respectively. Use of hamsters was approved by the Institutional Animal Care and Use Committee of the University of California San Diego. The preparation of somules (post-infective larvae derived from infectious larvae called cercariae) and adult worms (≥42-days-old), and their co-incubation with test compounds using a customized Basch incubation medium were as described. Screens of two developmental stages were employed in order to identify compounds with a potential broader spectrum of efficacy than the current drug, PZQ, which is deficient in this regard. Screens with somules employed 96-well round-bottomed plates and 40–50 animals/well, whereas screens with adults employed 24-well flat-bottomed plates and approximately 5–7 males and 2–3 females/well. Screens employed a final compound concentration of 10 µM in DMSO (at 0.5% and 0.1% final concentrations for somules and adults, respectively). The complex and often dynamic phenotypic responses that the schistosome parasite is capable of were observed using an Axiovert A1 inverted microscope at the times indicated in the data table. Observations were codified using a defined nomenclature that involves simple “descriptors”, to convey changes in shape, motility and appearance compared to DMSO controls. Each descriptor was given a value of 1 and these were added up to yield a “severity score” with a maximum of 4. Evidence of degeneracy or death was awarded a value of 4 for adult parasites specifically, the inability to adhere to the bottom of the well using oral or ventral suckers was given a score of 1 and damage to the tegument (surface) was awarded a value of 4 on the understanding that such damage in vivo would compromise survival. Scores were averaged across the two experiments.

S. mansoni adults = experiment: Phenotypic screen of S. mansoni adult worms (severity score); format: cell-based, Schistosoma mansoni
Protocol: as §1, §2

HepG2-A16-CD81EGFP cells = experiment: HepG2 cell cytotoxicity assay (CellTiter-Glo); format: cell-based; details: Homo sapiens, 72 h
Protocol: HepG2-A16-CD81EGFP cells (human hepatocarcinoma HepG2 cells stably transformed to express the tetraspanin CD81 receptor [51, 52]) were cultured at 37 °C in 5% CO2 in DMEM (without phenol red; Thermo Fisher Scientific, Waltham, MA, USA) supplemented with 10% FBS, 0.29 mg/mL glutamine, 100-unit penicillin and 100 μg/mL streptomycin. For cytotoxicity assays, compounds were prepared in 12-point 1:3 serial dilutions in DMSO starting at 10 mM. Then, 50 nL of compound (0.5% final DMSO concentration) were transferred with an Acoustic Transfer System (ATS) (Biosero) into white, solid bottom 1536-well assay plates (Greiner BioOne custom GNF mold; Monroe, NC, USA). Puromycin (12-point serial dilution starting at 10 μM) and 0.5% DMSO were used as positive and negative controls, respectively. After addition of compound, HepG2-A16-CD81EGFP cells in 10 µL of the above medium (5% FBS) were seeded into the assay plates at a density of 3,000 cells per well. Assay plates were incubated at 37 °C in 5% CO2for 72 h. To assess the HepG2 viability, the assay medium was removed by inverted centrifugation of the plate at 150 xg for 30 s. Then, 2 μL per well of CellTiter-Glo reagent (Promega diluted 1:2 with deionized water) was added using a MicroFlo liquid handler (BioTek). Immediately after addition of the CellTiter-Glo reagent, the luminescence was measured with an EnVision Multilabel reader (PerkinElmer). EC50 values were calculated using the normalized bioluminescence intensity and a non-linear, variable slope, four-parameter regression curve-fitting model in Prism 5 (GraphPad Software Inc., San Diego, CA, USA).

For `Cc1ccc(-n2cc(Cn3c(C(C)N4C(=O)c5ccccc5C4=O)nc4ccccc43)nn2)cc1` (stereo not drawn) [6z, 2-(1-(1-((1-(p-Tolyl)-1H-1,2,3-triazol-4-yl)methyl)-1H-benzo[d]imidazol-2-yl)ethyl)isoindoline-1,3-dione], the “SOMULE DESCRIPTORS @ 10 µM, 24 h” value ([1]; 24 h, phenotypic descriptors) was “R”, the “Somule Severity Score (10 µM) 24 h” value ([1]; 24 h, score 0 (no effect) to 4 (maximum), averaged across two experiments) was 1 and the “SOMULE SEVERITY SCORES @ 10 µM, 24” value ([1]; 24 h, score 0-4) was 1. For the same compound, the “SOMULE SEVERITY SCORES @ 10 µM, 48” value ([1]; 48 h, score 0-4) was 0, the “Somule Severity Score (10 µM) 48 h” value ([1]; 48 h, score 0 to 4) was 0 and the “SOMULE SEVERITY SCORES @ 10 µM, 72” value ([1]; 72 h, score 0-4) was 0. For the same compound, the “Somule Severity Score (10 µM) 72 h” value ([1]; 72 h, score 0 to 4) was 0, the “ADULT SEVERITY SCORES @ 10 µM, 1 h” value (S. mansoni adults; 1 h, score 0-4) was 0 and the “Adult Severity Score (10 µM) 1 h” value (S. mansoni adults; 1 h, score 0 to 4) was 0. For the same compound, the “ADULT SEVERITY SCORES @ 10 µM, 5 h” value (S. mansoni adults; 5 h, score 0-4) was 0, the “Adult Severity Score (10 µM) 5 h” value (S. mansoni adults; 5 h, score 0 to 4) was 0 and the “ADULT SEVERITY SCORES @ 10 µM, 24 h” value (S. mansoni adults; 24 h, score 0-4) was 0. For the same compound, the “Adult Severity Score (10 µM) 24 h” value (S. mansoni adults; 24 h, score 0 to 4) was 0, the IC50 (HepG2-A16-CD81EGFP cells) was > 100 µM and the EC50 (HepG2-A16-CD81EGFP cells; counter toxicity) was > 100 µM.
